The source made the active and inactive calls. The calls are words filed in the database; no cut-off is given here.
Legend:
U-87 MG [1] = test: Anti-proliferative activity against human U-87 MG cells assessed as cell viability incubated for 2 hrs by CCK8 assay; format: functional, cell-based, U-87MG ATCC
GL261 [2] = test: Anti-proliferative activity against mouse GL261 cells assessed as cell viability incubated for 2 hrs by CCK8 assay; format: functional, cell-based; conditions: GL261, 2 h
GL261 [3] = test: Anti-proliferative activity against […] GL261 cells assessed as inhibition rate incubated for 48 hrs by CCK8 assay; format: functional, cell-based
U-87 MG [4] = test: Anti-proliferative activity against human U-87 MG cells assessed as inhibition rate incubated for 48 hrs by CCK8 assay; format: functional, cell-based; conditions: U-87MG ATCC

IC50 (U-87 MG [1])	SMILES	IC50 (GL261 [2])	inhibition (GL261 [3])	inhibition (U-87 MG [4])
5.59 µM	Cc1cc(Cc2cn(C(=O)c3ccc(N4CCN(C)CC4)cc3)c3ccccc23)cc(C)c1O	3.49 µM		
30.2 µM	Cc1ccc(S(=O)(=O)n2cc(Cc3cc(C)c(O)c(C)c3)c3cc(C#N)ccc32)cc1	9.6 µM		
12.6 µM	Cc1cc(Cc2cn(C(=O)c3ccc(N4CCOCC4)cc3)c3ccccc23)cc(C)c1O	12.7 µM		
> 100 µM	Cc1cc(Cc2cn(C(=O)c3ccnc4ccccc34)c3ccccc23)cc(C)c1O	11.4 µM		
10.4 µM	COc1ccc2c(Cc3cc(C)c(O)c(C)c3)cn(S(=O)(=O)c3ccc(C)cc3)c2c1	38.5 µM		
7.29 µM	C[C@@H](Oc1cc(-c2cnn(C3CCNCC3)c2)cnc1N)c1c(Cl)ccc(F)c1Cl [CRIZOTINIB]	3.43 µM		
> 100 µM	Cc1cc(Cc2cn(C(=O)c3ccc([N+](=O)[O-])cc3)c3ccccc23)cc(C)c1O	100 µM		
> 100 µM	Cc1ccc(S(=O)(=O)n2cc(Cc3cc(C(C)(C)C)c(O)c(C(C)(C)C)c3)c3ccccc32)cc1	100 µM		
20.7 µM	Cc1ccc(S(=O)(=O)n2cc(Cc3cc(C)c(O)c(C)c3)c3cc(C)ccc32)cc1	12.3 µM		
	Cc1ccc(S(=O)(=O)n2cc(Cc3cc(C)c(O)c(C)c3)c3cc(NC(=O)CCCC[C@@H]4SC[C@@H]5NC(=O)N[C@@H]54)ccc32)cc1		Active	Active
> 100 µM	CCn1cc(Cc2cc(C)c(O)c(C)c2)c2ccccc21	100 µM		
55.1 µM	Cc1cc(Cc2c[nH]c3ccc(F)cc23)cc(C)c1O	19.2 µM		
28.1 µM	COc1ccc2c(c1)c(Cc1cc(C)c(O)c(C)c1)cn2S(=O)(=O)c1ccc(C)cc1	56.1 µM		
> 100 µM	OCc1c[nH]c2ccccc12 [INDOLE-3-CARBINOL]	100 µM		
7.96 µM	Cc1cc(Cc2cn(C)c3ccccc23)cc(C)c1O	12.7 µM		
> 100 µM	COc1c(C)cc(Cc2cn(S(=O)(=O)c3ccc(C)cc3)c3ccccc23)cc1C	100 µM		
42.6 µM	Cc1ccc(S(=O)(=O)n2cc(Cc3cc(C)c(O)c(C)c3)c3cc(F)ccc32)cc1	100 µM		
41.3 µM	Cc1cc(Cc2cn(C(=O)c3ccc(Cl)cc3)c3ccccc23)cc(C)c1O	100 µM		
58.3 µM	CC(=O)n1cc(Cc2cc(C)c(O)c(C)c2)c2ccccc21	25.4 µM		
3.52 µM	Cc1cc(Cc2cn(S(=O)(=O)c3ccc([N+](=O)[O-])c(Cl)c3)c3ccccc23)cc(C)c1O	15.7 µM		
74.6 µM	Cc1cc(Cc2c[nH]c3ccc([N+](=O)[O-])cc23)cc(C)c1O	43.8 µM		
23.2 µM	Cc1ccc(S(=O)(=O)n2cc(Cc3cc(C)c(O)c(C)c3)c3cc([N+](=O)[O-])ccc32)cc1	19.7 µM		
> 100 µM	Cc1cc(Cc2cn(S(=O)(=O)c3ccc([N+](=O)[O-])cc3)c3ccccc23)cc(C)c1O	100 µM		
> 100 µM	Cc1cc(Cc2cn(S(=O)(=O)c3ccc(Br)cc3)c3ccccc23)cc(C)c1O	100 µM		
75.4 µM	Cc1ccc(S(=O)(=O)n2cc(Cc3cc(C(C)C)c(O)c(C(C)C)c3)c3ccccc32)cc1	90.3 µM		
> 100 µM	Cc1cc(Cc2c[nH]c3ccccc23)cc(C)c1O	12.8 µM		
100 µM	CCC(=O)n1cc(Cc2cc(C)c(O)c(C)c2)c2ccccc21	2850 µM		
> 100 µM	Cc1cc(Cc2cn(S(C)(=O)=O)c3ccccc23)cc(C)c1O	100 µM		
> 100 µM	Cc1cc(Cc2cn(C(=O)c3ccncn3)c3ccccc23)cc(C)c1O	13.3 µM		

SMILES	IC50 (U-87 MG [1])	IC50 (GL261 [2])	inhibition (GL261 [3])	inhibition (U-87 MG [4])
Cc1cc(Cc2cn(Cc3ccc(Cl)cc3)c3ccccc23)cc(C)c1O	87.8 µM	54.9 µM		
CC(C)c1cccc(C(C)C)c1O [PROPOFOL]	> 100 µM	100 µM		
